# pIC50: −log10 of the molar value.
# Legend:
# HIPK1 = target: T1, HIPK1 (Homo sapiens, UniProt Q86Z02); assay: SelectScreen in vitro kinase IC50; assay type: biochemical
# T1 construct: purchased Ambit KINOMEscan (DiscoverX)
# Description: (§1) First, we used Ambit's KINOMEscan™ technology to identify those kinases that are inhibited for substrate binding by the compounds, all assayed at 1 μM. Second, we used Invitrogen's SelectScreen® Biochemical Kinase Profiling Service to determine the in vitro IC50s for the compounds against specific kinases.
# HCT-116 (K-RAS^G13D/+) = assay: Cell viability (Syto60); assay type: cell-based
# Description: (§2) All colon cancer cell lines were maintained in DMEM supplemented with penicillin (100 units/mL), streptomycin (100 μg/mL), and 10% fetal bovine serum (FBS). The rectal cancer cell line (Car1) was maintained in DMEM/F12 supplemented with penicillin (100 units/mL)/streptomycin (50 μg/mL), and 5% FBS. […] The target sequences for knockdowns can be found in Table S2. In drug treatment experiments, cells were plated for 24 hours prior to exposure to drug. AZ-628 was obtained from AstraZeneca. CI-1040 was obtained from Pfizer. R406 was synthesized in the Gray laboratory. BAY61-3606 and IKK VII were purchased from EMD Biosciences. BAY derivatives were synthesized for this study.
# (§3) Cell cycle analysis was performed via FACS-based propidium iodide quantification, using standard methods. To measure cell viability, cells were grown in 96-well plates in the presence or absence of drug for 72 hours, fixed with 4% paraformaldehyde, and then stained with Syto60 (Invitrogen). Plates were imaged and quantified using the LiCor Odyssey system (LiCor).
# [1] = system: colorectal cancer cells expressing mutant B-RAF (V600E) (HT-29, RKO); assay: Cell viability (Syto60); assay type: cell-based; details: HT-29 and RKO, 72 hours
# Description: as §2, §3
# DLD-1 (K-RAS^G13D/+) = assay: Cell cycle analysis (propidium iodide FACS); assay type: cell-based; details: DLD-1 cells
# Description: as §3
# [2] = system: phospho-MEK1 (Ser217/Ser221) and phospho-ERK1/2 (Thr202/Tyr204, Thr185/Tyr187); assay: Bio-Plex phospho-MEK1 and phospho-ERK1/2; assay type: cell-based; details: 45 minute exposure, 1 µM, K-RAS wild-type and mutant cells
# Description: The Bio-Plex assay system was used to measure signaling in drug-treated cells. Briefly, cells were incubated in the presence of drug for various amounts of time and then lysed in Bio-Rad cell lysis buffer (Bio-Rad). Protein quantification was performed using BCA assay (Pierce) and 5 µg of protein from each sample was used for Bio-Plex analysis. Phospho-signaling assays were performed using available phospho-signaling assay kits and quantified on a Bio-Plex 200 system (Bio-Rad): p-Iκβα (Ser32/Ser36), p-JNK (Thr183/Tyr185), p-MEK1 (Ser217/Ser221), p-ERK1/2 (Thr202/Tyr204, Thr185/Tyr187), p-p90RSK (Thr359/Ser363), p-p38 (Thr180/Tyr182), p-c-JUN (Ser63), p-ATF2 (Thr71), p-AKT (Ser473), p-S6 (Ser235/Ser236), p-STAT3 (Ser727), p-STAT3 (Tyr705), and p-GSK3α/β (Ser21/Ser9). Bio-Plex assay for total MEK1 was also performed as a loading control.
# B cell migration = system: B cell migration; parameters: method as in PMID 21123826; details: mice ref 15; cited from earlier work
# CDK4-cyclinD3 = target: T2, CDK4-cyclinD3 (Homo sapiens, UniProt P11802); assay: KINOMEscan; assay type: binding; details: CDK4-cyclinD3, 1 uM
# T2 construct: purchased Ambit KINOMEscan (DiscoverX)
# How it was run: (§4)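 Compounds were each tested at a single concentration of 1 μM in a binding-based kinase panel.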
# DCAMKL2 = target: T3, DCAMKL2 (Homo sapiens, UniProt Q8N568); assay: KINOMEscan; assay type: binding; details: DCAMKL2, 1 uM
# T3 construct: purchased Ambit KINOMEscan (DiscoverX)
# How it was run: as §4
# [3] = target: T4, EGFR(L747-E749del, A750P) (Homo sapiens, UniProt P00533, A750P/DEL747-749); assay: KINOMEscan; assay type: binding; details: 1 uM
# T4 construct: purchased Ambit KINOMEscan (DiscoverX)
# How it was run: as §4
# EGFR(S752-I759del) = target: T5, EGFR(S752-I759del) (Homo sapiens, UniProt P00533, DEL752-759); assay: KINOMEscan; assay type: binding; details: 1 uM
# T5 construct: purchased Ambit KINOMEscan (DiscoverX)
# How it was run: as §4
# NEK4 = target: T6, NEK4 (Homo sapiens, UniProt P51957); assay: KINOMEscan; assay type: binding; details: NEK4, 1 uM
# T6 construct: purchased Ambit KINOMEscan (DiscoverX)
# How it was run: as §4
# PRKCI = target: T7, PRKCI (Homo sapiens, UniProt P41743); assay: KINOMEscan; assay type: binding; details: 1 uM
# T7 construct: purchased Ambit KINOMEscan (DiscoverX)
# How it was run: as §4
# MAP4K2 = target: T8, MAP4K2 (Homo sapiens, UniProt Q12851); assay: SelectScreen in vitro kinase IC50; assay type: biochemical; details: Fig. S5
# T8 construct: purchased Ambit KINOMEscan (DiscoverX)
# T8 sequence (Q12851 1-820): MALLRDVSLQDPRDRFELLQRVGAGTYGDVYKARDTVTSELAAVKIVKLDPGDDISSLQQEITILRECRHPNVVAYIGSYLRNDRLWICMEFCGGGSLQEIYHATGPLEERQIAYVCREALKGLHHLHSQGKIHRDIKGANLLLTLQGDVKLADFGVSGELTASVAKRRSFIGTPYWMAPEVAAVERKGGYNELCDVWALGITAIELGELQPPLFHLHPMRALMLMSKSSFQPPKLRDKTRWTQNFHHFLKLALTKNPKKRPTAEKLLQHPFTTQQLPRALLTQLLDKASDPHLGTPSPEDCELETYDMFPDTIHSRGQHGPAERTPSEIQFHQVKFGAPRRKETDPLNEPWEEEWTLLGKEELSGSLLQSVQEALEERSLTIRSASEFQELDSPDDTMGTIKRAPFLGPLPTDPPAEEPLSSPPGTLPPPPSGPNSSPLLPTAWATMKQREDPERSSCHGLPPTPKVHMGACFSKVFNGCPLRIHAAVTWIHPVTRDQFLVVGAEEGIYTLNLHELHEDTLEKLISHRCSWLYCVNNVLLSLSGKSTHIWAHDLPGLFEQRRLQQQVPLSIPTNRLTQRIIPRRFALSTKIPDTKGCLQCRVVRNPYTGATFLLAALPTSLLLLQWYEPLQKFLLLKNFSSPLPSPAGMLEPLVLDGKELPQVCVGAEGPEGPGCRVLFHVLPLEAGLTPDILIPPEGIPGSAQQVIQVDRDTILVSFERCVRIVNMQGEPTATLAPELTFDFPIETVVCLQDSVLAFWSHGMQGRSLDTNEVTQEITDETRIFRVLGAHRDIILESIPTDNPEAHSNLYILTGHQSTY
# Description: as §1
# T3 sequence (Q8N568 whole entry): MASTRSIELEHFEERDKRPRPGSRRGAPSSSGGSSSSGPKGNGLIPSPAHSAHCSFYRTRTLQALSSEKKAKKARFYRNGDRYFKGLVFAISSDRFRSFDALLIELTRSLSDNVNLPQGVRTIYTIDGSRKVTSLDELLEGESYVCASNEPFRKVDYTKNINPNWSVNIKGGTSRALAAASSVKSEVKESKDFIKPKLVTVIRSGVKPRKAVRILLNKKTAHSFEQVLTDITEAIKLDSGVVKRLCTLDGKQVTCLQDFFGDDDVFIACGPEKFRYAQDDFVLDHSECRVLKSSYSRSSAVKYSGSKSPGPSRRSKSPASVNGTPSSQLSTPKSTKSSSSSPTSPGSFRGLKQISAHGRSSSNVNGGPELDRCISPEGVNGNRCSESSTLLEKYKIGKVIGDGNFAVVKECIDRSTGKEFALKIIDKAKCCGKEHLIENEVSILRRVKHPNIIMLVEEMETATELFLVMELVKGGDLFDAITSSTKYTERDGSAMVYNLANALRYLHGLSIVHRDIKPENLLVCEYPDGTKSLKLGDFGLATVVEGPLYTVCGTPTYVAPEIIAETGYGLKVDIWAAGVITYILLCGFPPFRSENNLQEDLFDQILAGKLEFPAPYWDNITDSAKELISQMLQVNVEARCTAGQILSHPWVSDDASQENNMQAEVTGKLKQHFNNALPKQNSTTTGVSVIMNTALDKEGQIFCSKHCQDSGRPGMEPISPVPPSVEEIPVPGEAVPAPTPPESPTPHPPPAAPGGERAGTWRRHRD
# T5 sequence (P00533 with tags, fused parts or gaps DEL752-759 limits assumed): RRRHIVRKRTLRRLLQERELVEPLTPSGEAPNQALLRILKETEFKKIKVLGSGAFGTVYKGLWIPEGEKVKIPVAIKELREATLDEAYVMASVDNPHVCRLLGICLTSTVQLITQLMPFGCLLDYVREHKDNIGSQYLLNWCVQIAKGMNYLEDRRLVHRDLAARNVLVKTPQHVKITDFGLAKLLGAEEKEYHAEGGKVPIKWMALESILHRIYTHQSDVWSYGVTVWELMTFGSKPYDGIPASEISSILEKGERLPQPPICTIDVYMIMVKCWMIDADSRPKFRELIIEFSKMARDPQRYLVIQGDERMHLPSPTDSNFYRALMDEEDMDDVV
# T1 sequence (Q86Z02 whole entry): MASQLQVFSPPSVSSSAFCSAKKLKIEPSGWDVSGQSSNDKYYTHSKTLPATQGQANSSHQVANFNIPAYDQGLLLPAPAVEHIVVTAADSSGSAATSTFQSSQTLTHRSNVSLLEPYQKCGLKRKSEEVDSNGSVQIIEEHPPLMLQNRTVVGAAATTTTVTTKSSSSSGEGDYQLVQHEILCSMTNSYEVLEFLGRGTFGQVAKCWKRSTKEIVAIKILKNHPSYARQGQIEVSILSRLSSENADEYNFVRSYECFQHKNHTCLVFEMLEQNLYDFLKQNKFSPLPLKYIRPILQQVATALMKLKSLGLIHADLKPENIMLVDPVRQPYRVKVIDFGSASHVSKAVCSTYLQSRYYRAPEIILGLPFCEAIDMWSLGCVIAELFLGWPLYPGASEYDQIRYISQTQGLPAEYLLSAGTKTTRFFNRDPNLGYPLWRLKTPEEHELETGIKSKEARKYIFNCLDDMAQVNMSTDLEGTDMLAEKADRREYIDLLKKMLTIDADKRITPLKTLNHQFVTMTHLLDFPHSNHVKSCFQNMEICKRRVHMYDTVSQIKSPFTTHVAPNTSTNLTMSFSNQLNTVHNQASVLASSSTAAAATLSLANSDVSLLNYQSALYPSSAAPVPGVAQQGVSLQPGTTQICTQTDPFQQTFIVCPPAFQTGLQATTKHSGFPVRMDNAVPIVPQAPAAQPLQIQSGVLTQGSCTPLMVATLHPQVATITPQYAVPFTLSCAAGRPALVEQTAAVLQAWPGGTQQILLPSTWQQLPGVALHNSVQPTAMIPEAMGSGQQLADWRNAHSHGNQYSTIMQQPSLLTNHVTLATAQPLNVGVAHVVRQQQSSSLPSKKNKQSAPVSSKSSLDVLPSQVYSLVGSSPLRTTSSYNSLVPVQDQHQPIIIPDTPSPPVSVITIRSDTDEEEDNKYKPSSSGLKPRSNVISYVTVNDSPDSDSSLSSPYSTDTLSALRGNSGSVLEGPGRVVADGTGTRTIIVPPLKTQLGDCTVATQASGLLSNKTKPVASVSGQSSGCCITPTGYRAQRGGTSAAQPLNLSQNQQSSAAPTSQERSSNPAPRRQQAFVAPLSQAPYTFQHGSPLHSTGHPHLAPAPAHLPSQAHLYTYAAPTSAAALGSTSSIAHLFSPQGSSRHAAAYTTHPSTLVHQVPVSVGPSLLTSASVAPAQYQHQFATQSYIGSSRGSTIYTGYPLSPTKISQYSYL
# T7 sequence (P41743 whole entry): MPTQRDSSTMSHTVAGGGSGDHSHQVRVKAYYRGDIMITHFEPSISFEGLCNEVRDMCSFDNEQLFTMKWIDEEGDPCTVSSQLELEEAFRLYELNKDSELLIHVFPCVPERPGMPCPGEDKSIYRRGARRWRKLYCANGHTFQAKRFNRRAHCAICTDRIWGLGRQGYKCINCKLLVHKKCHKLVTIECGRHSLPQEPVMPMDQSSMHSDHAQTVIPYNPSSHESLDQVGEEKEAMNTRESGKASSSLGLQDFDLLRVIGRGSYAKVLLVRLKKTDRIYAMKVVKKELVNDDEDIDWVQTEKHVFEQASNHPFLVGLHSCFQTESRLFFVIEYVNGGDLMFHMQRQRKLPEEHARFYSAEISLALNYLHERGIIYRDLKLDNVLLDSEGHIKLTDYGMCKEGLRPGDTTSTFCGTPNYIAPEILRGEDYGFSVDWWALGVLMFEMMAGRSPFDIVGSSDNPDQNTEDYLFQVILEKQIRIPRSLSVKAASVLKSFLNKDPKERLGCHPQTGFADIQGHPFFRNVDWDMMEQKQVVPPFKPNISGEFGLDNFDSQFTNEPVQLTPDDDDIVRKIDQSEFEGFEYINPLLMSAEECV
# T4 sequence (P00533 with tags, fused parts or gaps DEL747-749/A750P limits assumed): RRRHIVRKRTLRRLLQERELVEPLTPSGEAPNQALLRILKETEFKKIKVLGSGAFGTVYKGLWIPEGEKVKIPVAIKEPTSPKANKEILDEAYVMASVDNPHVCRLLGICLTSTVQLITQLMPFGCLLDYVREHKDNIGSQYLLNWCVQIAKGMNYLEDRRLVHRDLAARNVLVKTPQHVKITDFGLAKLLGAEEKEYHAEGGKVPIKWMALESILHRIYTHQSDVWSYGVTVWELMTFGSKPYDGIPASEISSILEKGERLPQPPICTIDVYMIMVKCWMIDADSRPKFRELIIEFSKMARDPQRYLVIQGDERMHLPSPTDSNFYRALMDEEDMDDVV
# T6 sequence (P51957 whole entry): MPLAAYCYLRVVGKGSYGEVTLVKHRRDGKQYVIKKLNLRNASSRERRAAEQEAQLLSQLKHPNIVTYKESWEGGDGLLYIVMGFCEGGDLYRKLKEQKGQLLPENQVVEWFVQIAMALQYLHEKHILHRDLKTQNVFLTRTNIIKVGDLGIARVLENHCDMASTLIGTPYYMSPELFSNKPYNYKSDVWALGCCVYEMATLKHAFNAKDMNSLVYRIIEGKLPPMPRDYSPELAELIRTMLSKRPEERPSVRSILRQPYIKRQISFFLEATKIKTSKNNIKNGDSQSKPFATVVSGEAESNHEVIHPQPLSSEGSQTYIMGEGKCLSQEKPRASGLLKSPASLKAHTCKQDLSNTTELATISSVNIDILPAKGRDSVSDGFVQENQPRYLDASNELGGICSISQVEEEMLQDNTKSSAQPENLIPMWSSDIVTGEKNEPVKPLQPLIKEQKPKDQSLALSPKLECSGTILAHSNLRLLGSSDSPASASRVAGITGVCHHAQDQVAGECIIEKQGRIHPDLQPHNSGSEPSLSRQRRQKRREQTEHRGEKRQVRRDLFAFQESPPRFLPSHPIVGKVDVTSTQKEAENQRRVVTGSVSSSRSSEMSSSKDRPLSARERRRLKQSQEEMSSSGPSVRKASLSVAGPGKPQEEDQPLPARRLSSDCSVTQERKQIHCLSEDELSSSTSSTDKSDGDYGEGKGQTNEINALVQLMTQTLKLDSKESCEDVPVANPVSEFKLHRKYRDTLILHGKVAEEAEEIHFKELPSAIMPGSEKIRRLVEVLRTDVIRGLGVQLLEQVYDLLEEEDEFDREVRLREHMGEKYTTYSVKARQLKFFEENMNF
# T2 sequence (P11802 whole entry): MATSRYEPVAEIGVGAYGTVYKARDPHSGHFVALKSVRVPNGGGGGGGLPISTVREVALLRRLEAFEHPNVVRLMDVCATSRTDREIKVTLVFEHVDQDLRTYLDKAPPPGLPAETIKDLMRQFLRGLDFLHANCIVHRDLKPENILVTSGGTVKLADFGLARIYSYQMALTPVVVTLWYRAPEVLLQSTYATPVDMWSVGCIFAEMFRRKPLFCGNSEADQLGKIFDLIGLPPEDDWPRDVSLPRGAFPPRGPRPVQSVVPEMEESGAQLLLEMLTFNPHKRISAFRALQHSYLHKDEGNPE
# T2 sequence (P30281 whole entry partner): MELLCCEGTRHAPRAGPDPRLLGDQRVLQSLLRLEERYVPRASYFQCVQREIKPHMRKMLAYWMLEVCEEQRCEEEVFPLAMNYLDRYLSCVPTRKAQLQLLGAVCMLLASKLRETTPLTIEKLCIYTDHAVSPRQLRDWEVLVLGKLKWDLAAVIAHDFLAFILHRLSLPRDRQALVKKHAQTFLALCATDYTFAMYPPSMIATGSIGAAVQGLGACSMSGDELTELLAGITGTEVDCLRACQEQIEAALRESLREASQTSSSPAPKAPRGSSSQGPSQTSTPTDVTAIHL
Structure (SMILES),pIC50 (HIPK1),"sensitivity of cells expressing mutant K-RAS (cell viability) (HCT-116 (K-RAS^G13D/+); 72 hours, HCT-116 compared to HKe-3, normalized to DMSO)","cooperation with AZ-628 (cell viability) (HCT-116 (K-RAS^G13D/+); HCT-116, 72 hours, 1 µM AZ-628)","cell viability, combination of BAY61-3606 and CI-1040 [1]",sensitivity of cells expressing mutant B-RAF (cell viability) ([1]; single agent),apoptosis (DLD-1 (K-RAS^G13D/+)),cell cycle profile (DLD-1 (K-RAS^G13D/+); propidium iodide),MEK and ERK phosphorylation [2],B cell migration (B cell migration),% binding compared to no inhibitor control (CDK4-cyclinD3) [%],% binding compared to no inhibitor control (DCAMKL2) [%],% binding compared to no inhibitor control [3] [%],% binding compared to no inhibitor control (EGFR(S752-I759del)) [%],% binding compared to no inhibitor control (NEK4) [%],% binding compared to no inhibitor control (PRKCI) [%],"in vitro kinase activity of MAP4K2, inhibition (MAP4K2)"
"COc1ccc(-c2cc3nccn3c(Nc3ncccc3C(N)=O)n2)cc1OC.Cl.Cl [BAY61-3606, 2-[7-(3,4-dimethoxyphenyl)-imidazo [1,2-c]pyrimidin-5-ylamino] nicotinamide dihydrochloride, reference compound]",5.37,relatively sensitive,did not cooperate,cooperated to produce an enhanced response,sensitive,nor did it induce apoptosis,did not alter the cell cycle profile,unable to do so,suppresses,,,,,,,
COc1ccccc1Nc1nc(-c2ccc(OC)c(OC)c2)cc2nccn12 [BAY derivative 6],,,,,,,,,,95,100,74,72,85,100,lost its ability to effectively inhibit the in vitro kinase activity of MAP4K2
